From patent publication US5169838A, “Benzopyranone-β-D-thioxylosides and their use in therapy” (Fournier Industrie et Sante, priority 1989, dated 1992)

Experiment: venous thrombosis (venous stasis under hypercoagulation with activated factor X, Wessler technique)
Type: in vivo, male Wistar rats
Settings: po, administered orally, rat, thrombosis induced 4 hours after treatment, thrombus weighed
Procedure: The study is performed on unfasted male Wistar rats weighing 250 to 280 g, divided up into groups of 10 animals each. The test products are administered orally as a suspension in PEG 400. A thrombosis is induced 4 hours after this treatment and the thrombus formed is removed and weighed.
CCc1cc(=O)oc2cc(O[C@@H]3SC[C@@H](O)[C@H](O)[C@H]3O)ccc12 [Example 1, 4-ethyl-2-oxo-2H-1-benzopyran-7-yl 5-thio-β-D-xylopyranoside] showed an inhibition in vivo at 3 mg/kg of 87%.
CCc1cc(=O)oc2cc(O[C@@H]3SC[C@@H](OC(C)=O)[C@H](OC(C)=O)[C@H]3OC(C)=O)ccc12 [Example 1a, 4-ethyl-2-oxo-2H-1-benzopyran-7-yl 2,3,4-tri-O-acetyl-5-thio-β-D-xylopyranoside] gave an inhibition in vivo at 3 mg/kg of 65%.
Compound Cc1cc(=O)oc2ccc(O[C@@H]3SC[C@@H](O)[C@H](O)[C@H]3O)cc12 [Example 2, 4-methyl-2-oxo-2H-1-benzopyran-6-yl 5-thio-β-D-xylopyranoside] has an inhibition in vivo at 3 mg/kg of 81%.
For CC(=O)O[C@@H]1[C@@H](OC(C)=O)[C@H](OC(C)=O)CS[C@H]1Oc1ccc2oc(=O)cc(C)c2c1 [Example 2a, 4-methyl-2-oxo-2H-1-benzopyran-6-yl 2,3,4-tri-O-acetyl-5-thio-β-D-xylopyranoside], the inhibition in vivo at 3 mg/kg was 53%.
Work on O=c1cc(C(F)(F)F)c2ccc(O[C@@H]3SC[C@@H](O)[C@H](O)[C@H]3O)cc2o1 [Example 3, 4-trifluoromethyl-2-oxo-2H-1-benzopyran-7-yl 5-thio-β-D-xylopyranoside] yielded an inhibition in vivo at 3 mg/kg of 80%.
CC(=O)O[C@@H]1[C@@H](OC(C)=O)[C@H](OC(C)=O)CS[C@H]1Oc1ccc2c(C(F)(F)F)cc(=O)oc2c1 [Example 3a, 4-trifluoromethyl-2-oxo-2H-1-benzopyran-7-yl 2,3,4-tri-O-acetyl-5-thio-β-D-xylopyranoside] showed an inhibition in vivo at 3 mg/kg of 47%.
Cc1cc(=O)oc2c(O[C@@H]3SC[C@@H](O)[C@H](O)[C@H]3O)cccc12 [Example 4, 4-methyl-2-oxo-2H-1-benzopyran-8-yl 5-thio-β-D-xylopyranoside] gave an inhibition in vivo at 3 mg/kg of 52%.
Compound CC(=O)O[C@@H]1[C@@H](OC(C)=O)[C@H](OC(C)=O)CS[C@H]1Oc1cccc2c(C)cc(=O)oc12 [Example 4a, 4-methyl-2-oxo-2H-1-benzopyran-8-yl 2,3,4-tri-O-acetyl-5-thio-β-D-xylopyranoside] has an inhibition in vivo at 3 mg/kg of 51%.
In the case of CCCc1cc(=O)oc2cc(O[C@@H]3SC[C@@H](O)[C@H](O)[C@H]3O)ccc12 [Example 5, 2-oxo-4-propyl-2H-1-benzopyran-7-yl 5-thio-β-D-xylopyranoside], the inhibition in vivo at 3 mg/kg is reported as 26%.
In the case of CCCc1cc(=O)oc2cc(O[C@@H]3SC[C@@H](OC(C)=O)[C@H](OC(C)=O)[C@H]3OC(C)=O)ccc12 [Example 5a, 2-oxo-4-propyl-2H-1-benzopyran-7-yl 2,3,4-tri-O-acetyl-5-thio-β-D-xylopyranoside], the inhibition in vivo at 3 mg/kg is reported as 46%.
Compound Cc1cc(=O)oc2cccc(O[C@@H]3SC[C@@H](O)[C@H](O)[C@H]3O)c12 [Example 6, 4-methyl-2-oxo-2H-1-benzopyran-5-yl 5-thio-β-D-xylopyranoside] has an inhibition in vivo at 3 mg/kg of 42%.
In the case of Cc1cc(=O)oc2cccc(S[C@@H]3SC[C@@H](O)[C@H](O)[C@H]3O)c12 [Example 7, 4-methyl-2-oxo-2H-1-benzopyran-5-yl 1,5-dithio-β-D-xylopyranoside], the inhibition in vivo at 3 mg/kg is reported as 38%.
Cc1cc(=O)oc2cc(S[C@@H]3SC[C@@H](O)[C@H](O)[C@H]3O)ccc12 [Example 8, 4-methyl-2-oxo-2H-1-benzopyran-7-yl 1,5-dithio-β-D-xylopyranoside] showed an inhibition in vivo at 3 mg/kg of 46%.
With CC(=O)O[C@@H]1[C@@H](OC(C)=O)[C@H](Sc2ccc3c(C)cc(=O)oc3c2)SC[C@H]1OC(C)=O [Example 8a, 4-methyl-2-oxo-2H-1-benzopyran-7-yl 2,3,4-tri-O-acetyl-1,5-dithio-β-D-xylopyranoside] the inhibition in vivo at 3 mg/kg was 65%.
Cc1cc(=O)oc2c(S[C@@H]3SC[C@@H](O)[C@H](O)[C@H]3O)cccc12 [Example 9, 4-methyl-2-oxo-2H-1-benzopyran-8-yl 1,5-dithio-β-D-xylopyranoside] showed an inhibition in vivo at 3 mg/kg of 31%.
Cc1cc(=O)oc2ccc(S[C@@H]3SC[C@@H](O)[C@H](O)[C@H]3O)cc12 [Example 10, 4-methyl-2-oxo-2H-1-benzopyran-6-yl 1,5-dithio-β-D-xylopyranoside] gave an inhibition in vivo at 3 mg/kg of 37%.
With CC(=O)O[C@@H]1[C@@H](OC(C)=O)[C@H](Sc2ccc3oc(=O)cc(C)c3c2)SC[C@H]1OC(C)=O [Example 10a, 4-methyl-2-oxo-2H-1-benzopyran-6-yl 2,3,4-tri-O-acetyl-1,5-dithio-β-D-xylopyranoside] the inhibition in vivo at 3 mg/kg was 32%.
O=c1cc(C(F)(F)F)c2ccc(S[C@@H]3SC[C@@H](O)[C@H](O)[C@H]3O)cc2o1 [Example 11, 4-trifluoromethyl-2-oxo-2H-1-benzopyran-7-yl 1,5-dithio-β-D-xylopyranoside] showed an inhibition in vivo at 3 mg/kg of 36%.
Cc1c(Cl)c(=O)oc2cc(S[C@@H]3SC[C@@H](O)[C@H](O)[C@H]3O)ccc12 [Example 12, 3-chloro-4-methyl-2-oxo-2H-1-benzopyran-7-yl 1,5-dithio-β-D-xylopyranoside] showed an inhibition in vivo at 3 mg/kg of 65%.
For CC(=O)O[C@@H]1[C@@H](OC(C)=O)[C@H](Sc2ccc3c(C)c(Cl)c(=O)oc3c2)SC[C@H]1OC(C)=O [Example 12a, 3-chloro-4-methyl-2-oxo-2H-1-benzopyran-7-yl 2,3,4-tri-O-acetyl-1,5-dithio-β-D-xylopyranoside], the inhibition in vivo at 3 mg/kg was 32%.
For CCc1cc(=O)oc2cc(S[C@@H]3SC[C@@H](O)[C@H](O)[C@H]3O)ccc12 [Example 13, 4-ethyl-2-oxo-2H-1-benzopyran-7-yl 1,5-dithio-β-D-xylopyranoside], the inhibition in vivo at 3 mg/kg was 54%.
Work on CCc1cc(=O)oc2cc(S[C@@H]3SC[C@@H](OC(C)=O)[C@H](OC(C)=O)[C@H]3OC(C)=O)ccc12 [Example 13a, 4-ethyl-2-oxo-2H-1-benzopyran-7-yl 2,3,4-tri-O-acetyl-1,5-dithio-β-D-xylopyranoside] yielded an inhibition in vivo at 3 mg/kg of 58%.
With CCCc1cc(=O)oc2cc(S[C@@H]3SC[C@@H](O)[C@H](O)[C@H]3O)ccc12 [Example 14, 2-oxo-4-propyl-2H-1-benzopyran-7-yl 1,5-dithio-β-D-xylopyranoside] the inhibition in vivo at 3 mg/kg was 43%.
Work on CCCc1cc(=O)oc2cc(S[C@@H]3SC[C@@H](OC(C)=O)[C@H](OC(C)=O)[C@H]3OC(C)=O)ccc12 [Example 14a, 2-oxo-4-propyl-2H-1-benzopyran-7-yl 2,3,4-tri-O-acetyl-1,5-dithio-β-D-xylopyranoside] yielded an inhibition in vivo at 3 mg/kg of 25%.
With O=c1oc2cc(S[C@@H]3SC[C@@H](O)[C@H](O)[C@H]3O)ccc2c2c1CCCC2 [Example 15, 7,8,9,10-tetrahydro-6-oxo-6H-dibenzo[b,d]pyran-3-yl 1,5-dithio-β-D-xylopyranoside] the inhibition in vivo at 3 mg/kg was 31%.
For CC(=O)O[C@@H]1[C@@H](OC(C)=O)[C@H](Sc2ccc3c4c(c(=O)oc3c2)CCCC4)SC[C@H]1OC(C)=O [Example 15a, 7,8,9,10-tetrahydro-6-oxo-6H-dibenzo[b,d]pyran-3-yl 2,3,4-tri-O-acetyl-1,5-dithio-β-D-xylopyranoside], the inhibition in vivo at 3 mg/kg was 23%.
Work on Cc1cc(=O)oc2cc(O[C@@H]3SC[C@@H](O)[C@H](O)[C@H]3O)ccc12 [Example 16, 4-methyl-2-oxo-2H-1-benzopyran-7-yl 5-thio-β-D-xylopyranoside] yielded an inhibition in vivo at 3 mg/kg of 63%.
Work on CC(=O)O[C@@H]1[C@@H](OC(C)=O)[C@H](OC(C)=O)CS[C@H]1Oc1ccc2c(C)cc(=O)oc2c1 [Example 16a, 4-methyl-2-oxo-2H-1-benzopyran-7-yl 2,3,4-tri-O-acetyl-5-thio-β-D-xylopyranoside] yielded an inhibition in vivo at 3 mg/kg of 63%.
